Measured values: publication PMC5400620, “Preclinical therapeutic efficacy of a novel blood-brain barrier-penetrant dual PI3K/mTOR inhibitor with preferential response in PI3K/PTEN mutant glioma” (Oncotarget, 2017)

Key:
U87 GFP-LC3 cells = assay: GFP-LC3 puncta detection (autophagy); type: cell-based, human; conditions: TMZ 125 μM, DS 100 nM, control 2%
Description: To investigate the effects of DS, TMZ, or the TMZ/DS combination on autophagy in glioma cells, we transfected cells with GFP-LC3 constructs in addition to various drug treatment and control treatment regimens and examined the accumulation of punctate GFP-LC3 structures using fluorescence microscopy. During autophagy, LC3-II relocalizes to the autophagosomal membranes. Thus, the accumulation of GFP-LC3 puncta provides an effective way to detect autophagosomes. In control cells, GFP-LC3 punctate structures were not detected, but large numbers of GFP-LC3 punctate structures were found in cells treated with DS or TMZ (Figure 5C). […] Strikingly, the combination of DS and TMZ further induced autophagy in up to 50% of U87 cells.
U87 GFP-LC3 cells were analyzed by using a fluorescence microscope, and the percentage of cells displaying GFP-LC3-positive puncta was quantified by counting 5 random fields in 3 independent experiments.

[1] = system: PI3K/mTOR signaling (pAkt, pS6); assay: pAkt and pS6 in U87 tumors or brain after a single PO dose; type: in vivo, mice; conditions: single PO dose 6 mg/kg, compared with untreated animals
Protocol: Figure 1 A. and B. Plasma and brain concentration-time profile of DS7423 following a single PO administration (6 mg/kg) to nude mice. C. Western blot of mouse brains probed with antibodies against pAkt (Ser473) and pS6 (Ser235/236) in a time profile similar to that shown in A and B. Results are presented as the mean ± SE of six animals in each group.
To correlate DS brain concentration with the modulation of PI3K/mTOR signaling in U87 tumors, we used immunohistochemical analysis to study the signaling alterations in tumor sections derived from mice at similar time points following a single PO dose of DS (6 mg/kg). Tissue sections were probed with antibodies against pAkt and pS6. […] DS plasma and brain concentrations decreased after 24 hours, which correlated with an increase in pAkt and pS6.

panel of 227 kinases = assay: representative panel of 227 kinases in biochemical assays; conditions: greater than 50% inhibition only against 2 other kinases
Protocol: (§1) DS7423 inhibits PI3K/mTOR activity likely binding to the ATP binding cleft of these enzymes and was tested against class I PI3K and other kinases using an HTRF assay format and direct measurement of substrate phosphorylation, respectively.

[2] = target: T1, never-in-mitosis gene a (NIMA)-related kinase 2 (NEK2) (Homo sapiens, UniProt P51955); assay: kinase panel, direct measurement of substrate phosphorylation, NEK2; type: biochemical; conditions: panel of 227 kinases; test concentration not given
T1 sequence (P51955 1-445): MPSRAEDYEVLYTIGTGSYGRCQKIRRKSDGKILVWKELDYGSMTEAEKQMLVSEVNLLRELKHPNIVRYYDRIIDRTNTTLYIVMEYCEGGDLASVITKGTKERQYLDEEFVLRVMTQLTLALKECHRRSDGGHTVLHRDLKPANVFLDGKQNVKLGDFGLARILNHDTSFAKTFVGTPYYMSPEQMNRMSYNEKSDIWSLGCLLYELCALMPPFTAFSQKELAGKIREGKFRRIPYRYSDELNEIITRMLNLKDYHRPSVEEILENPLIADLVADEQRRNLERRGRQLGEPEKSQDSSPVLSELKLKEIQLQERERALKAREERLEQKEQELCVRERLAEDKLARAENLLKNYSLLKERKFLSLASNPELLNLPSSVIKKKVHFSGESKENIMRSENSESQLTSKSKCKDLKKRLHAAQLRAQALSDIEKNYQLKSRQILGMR
Protocol: as §1

[3] = system: glioma cell lines U87 and U251; assay: cell viability with DS, TMZ and the combination; type: cell-based; conditions: Homo sapiens, U-251, TMZ 200 μM, DS 200 nM, alone or combined
Protocol: To investigate the ability of DS to modify the response of glioma cells to TMZ treatment, we evaluated the effects of TMZ (200 μM) alone, DS (200 nM) alone, and a combination of both TMZ and DS on the viability of the glioma cell lines U87 and U251 (Figure 5A).
The antiproliferative effect of DS on cells growing in culture was determined using the CellTiter-Blue (Promega, Madison, WI) viability assay. The mean drug concentration required to inhibit cell proliferation by 50% (IC50) compared with vehicle-treated controls was calculated using CalcuSyn Version 2.0 software (Great ShelfordCambridge, United Kingdom).

p110γ = p110γ (Homo sapiens, UniProt P48736); assay: class I PI3K HTRF assay, p110γ; type: biochemical
Sequence of p110γ (P48736 whole entry): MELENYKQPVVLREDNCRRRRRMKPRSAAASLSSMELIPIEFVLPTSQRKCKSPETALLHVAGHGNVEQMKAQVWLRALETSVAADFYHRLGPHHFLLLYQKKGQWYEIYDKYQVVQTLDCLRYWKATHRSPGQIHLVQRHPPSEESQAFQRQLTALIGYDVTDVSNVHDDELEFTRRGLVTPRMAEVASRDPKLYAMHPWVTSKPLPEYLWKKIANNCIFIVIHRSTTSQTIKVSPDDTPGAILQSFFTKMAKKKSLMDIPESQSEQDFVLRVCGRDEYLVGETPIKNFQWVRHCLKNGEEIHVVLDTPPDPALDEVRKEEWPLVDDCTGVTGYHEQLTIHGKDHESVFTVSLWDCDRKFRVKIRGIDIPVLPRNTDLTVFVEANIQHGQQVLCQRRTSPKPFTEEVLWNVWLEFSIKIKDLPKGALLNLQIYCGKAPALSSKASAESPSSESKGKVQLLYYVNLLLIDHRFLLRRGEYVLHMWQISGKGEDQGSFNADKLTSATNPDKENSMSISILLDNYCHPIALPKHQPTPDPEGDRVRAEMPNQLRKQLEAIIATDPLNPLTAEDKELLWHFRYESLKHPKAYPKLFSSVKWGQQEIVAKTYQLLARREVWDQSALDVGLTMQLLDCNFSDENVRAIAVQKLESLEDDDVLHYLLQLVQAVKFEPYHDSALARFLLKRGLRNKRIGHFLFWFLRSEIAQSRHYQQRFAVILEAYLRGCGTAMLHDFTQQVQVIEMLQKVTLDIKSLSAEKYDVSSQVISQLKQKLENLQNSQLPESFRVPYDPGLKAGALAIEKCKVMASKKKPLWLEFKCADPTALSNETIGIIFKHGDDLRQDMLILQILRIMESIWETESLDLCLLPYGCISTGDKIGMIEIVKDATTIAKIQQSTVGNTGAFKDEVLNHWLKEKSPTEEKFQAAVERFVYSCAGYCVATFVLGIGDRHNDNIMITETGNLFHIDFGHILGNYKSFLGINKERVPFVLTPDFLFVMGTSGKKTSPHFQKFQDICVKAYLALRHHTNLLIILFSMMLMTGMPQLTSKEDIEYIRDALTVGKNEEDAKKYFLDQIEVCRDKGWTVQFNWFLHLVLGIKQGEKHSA
Protocol: as §1

p110δ = p110δ (Homo sapiens, UniProt O00329); assay: class I PI3K HTRF assay, p110δ; type: biochemical
Sequence of p110δ (O00329 whole entry): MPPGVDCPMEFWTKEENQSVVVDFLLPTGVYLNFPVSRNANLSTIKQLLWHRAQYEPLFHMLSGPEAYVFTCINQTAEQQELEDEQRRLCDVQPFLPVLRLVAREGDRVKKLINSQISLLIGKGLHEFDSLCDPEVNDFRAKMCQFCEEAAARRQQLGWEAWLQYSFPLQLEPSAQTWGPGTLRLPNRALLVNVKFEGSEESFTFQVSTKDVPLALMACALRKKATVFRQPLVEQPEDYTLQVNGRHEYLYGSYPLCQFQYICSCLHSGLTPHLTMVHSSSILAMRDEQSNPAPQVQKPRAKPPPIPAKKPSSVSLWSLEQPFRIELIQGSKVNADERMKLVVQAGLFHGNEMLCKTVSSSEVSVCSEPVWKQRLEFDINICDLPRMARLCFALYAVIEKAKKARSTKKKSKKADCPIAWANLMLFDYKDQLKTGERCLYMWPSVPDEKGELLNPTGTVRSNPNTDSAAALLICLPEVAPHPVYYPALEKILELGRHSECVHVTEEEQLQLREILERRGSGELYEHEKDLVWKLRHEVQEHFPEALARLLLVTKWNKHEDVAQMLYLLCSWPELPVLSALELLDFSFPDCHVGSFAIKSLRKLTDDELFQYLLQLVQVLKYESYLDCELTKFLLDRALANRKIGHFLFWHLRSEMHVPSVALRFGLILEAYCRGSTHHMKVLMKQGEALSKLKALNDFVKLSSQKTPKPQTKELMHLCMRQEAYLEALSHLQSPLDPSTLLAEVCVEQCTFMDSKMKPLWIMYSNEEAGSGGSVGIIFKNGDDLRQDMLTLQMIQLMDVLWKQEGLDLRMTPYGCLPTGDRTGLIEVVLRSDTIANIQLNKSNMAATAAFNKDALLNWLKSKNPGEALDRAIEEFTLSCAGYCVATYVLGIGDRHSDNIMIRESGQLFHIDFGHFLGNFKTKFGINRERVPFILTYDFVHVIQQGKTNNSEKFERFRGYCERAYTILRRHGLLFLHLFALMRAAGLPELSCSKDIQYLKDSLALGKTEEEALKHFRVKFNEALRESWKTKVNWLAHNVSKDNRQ
Sequence of p110δ (P27986 whole entry partner): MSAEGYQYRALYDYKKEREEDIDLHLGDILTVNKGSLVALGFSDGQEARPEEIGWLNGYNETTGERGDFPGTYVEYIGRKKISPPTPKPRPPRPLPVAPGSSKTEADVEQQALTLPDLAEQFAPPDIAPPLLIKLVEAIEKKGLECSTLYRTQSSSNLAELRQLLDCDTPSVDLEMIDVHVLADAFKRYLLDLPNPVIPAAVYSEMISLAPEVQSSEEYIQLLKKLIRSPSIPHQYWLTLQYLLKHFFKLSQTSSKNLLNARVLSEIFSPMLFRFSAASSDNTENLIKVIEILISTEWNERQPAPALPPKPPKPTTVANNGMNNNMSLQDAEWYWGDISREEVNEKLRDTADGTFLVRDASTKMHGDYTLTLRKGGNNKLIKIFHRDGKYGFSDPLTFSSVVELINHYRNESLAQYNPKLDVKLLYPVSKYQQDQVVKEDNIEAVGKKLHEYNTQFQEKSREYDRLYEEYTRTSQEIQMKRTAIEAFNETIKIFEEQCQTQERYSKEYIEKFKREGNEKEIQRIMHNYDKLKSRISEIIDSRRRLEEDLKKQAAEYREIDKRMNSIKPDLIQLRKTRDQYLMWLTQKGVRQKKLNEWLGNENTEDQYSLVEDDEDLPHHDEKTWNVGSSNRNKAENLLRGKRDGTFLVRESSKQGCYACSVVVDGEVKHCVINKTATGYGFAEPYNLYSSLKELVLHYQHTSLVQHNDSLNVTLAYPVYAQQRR
Protocol: as §1

p110α = p110α (Homo sapiens, UniProt P42336); assay: class I PI3K HTRF assay, p110α; type: biochemical
Sequence of p110α (P42336 whole entry): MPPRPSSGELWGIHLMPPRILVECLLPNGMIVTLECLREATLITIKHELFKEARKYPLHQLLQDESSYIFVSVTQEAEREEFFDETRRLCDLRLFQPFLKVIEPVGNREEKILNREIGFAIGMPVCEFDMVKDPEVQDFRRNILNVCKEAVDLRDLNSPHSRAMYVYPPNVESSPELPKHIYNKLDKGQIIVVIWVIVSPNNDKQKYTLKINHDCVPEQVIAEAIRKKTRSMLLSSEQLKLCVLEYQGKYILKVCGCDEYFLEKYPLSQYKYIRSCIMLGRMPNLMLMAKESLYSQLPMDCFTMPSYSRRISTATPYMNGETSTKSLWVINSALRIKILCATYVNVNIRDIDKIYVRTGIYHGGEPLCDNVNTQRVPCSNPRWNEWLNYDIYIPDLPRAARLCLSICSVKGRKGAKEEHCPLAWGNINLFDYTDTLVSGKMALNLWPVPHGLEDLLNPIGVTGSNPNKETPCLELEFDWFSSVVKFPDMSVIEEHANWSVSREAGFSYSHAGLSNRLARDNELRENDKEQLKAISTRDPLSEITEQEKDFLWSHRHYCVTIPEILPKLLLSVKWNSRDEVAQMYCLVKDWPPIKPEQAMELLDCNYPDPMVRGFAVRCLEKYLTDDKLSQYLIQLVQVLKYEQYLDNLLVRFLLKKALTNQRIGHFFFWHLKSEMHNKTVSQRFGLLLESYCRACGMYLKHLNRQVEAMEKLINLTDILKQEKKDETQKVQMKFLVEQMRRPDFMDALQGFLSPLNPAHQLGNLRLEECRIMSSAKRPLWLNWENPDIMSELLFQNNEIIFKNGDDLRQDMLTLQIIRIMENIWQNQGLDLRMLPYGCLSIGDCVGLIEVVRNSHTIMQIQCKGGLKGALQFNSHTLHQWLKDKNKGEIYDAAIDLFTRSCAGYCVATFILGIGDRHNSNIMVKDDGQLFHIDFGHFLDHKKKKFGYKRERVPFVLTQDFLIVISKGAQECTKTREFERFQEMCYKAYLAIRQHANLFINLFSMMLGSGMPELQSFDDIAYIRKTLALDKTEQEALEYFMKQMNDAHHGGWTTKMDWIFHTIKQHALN
Sequence of p110α (P27986 whole entry partner): as the sequence (P27986 whole entry partner) above
Protocol: as §1

U87 glioma cells = assay: U87 orthotopic intracranial xenograft efficacy; type: in vivo
Description: Figure 4 DS7423 suppressed tumor growth and prolonged survival in an orthotopic mouse xenograft model U87 glioma cells U87 and GSC11 GICs were used to generate orthotopic xenografts in mouse brains. Tumor-bearing mice received either vehicle or DS7423 at the indicated dose/schedules. Two mice were killed at the indicated time points (2 weeks and 4 weeks) after DS treatment. A. and B. Kaplan–Meier survival plots of tumor-bearing mice in vehicle or DS7423 treatment groups (n = 10). The log-rank method was used to test for a difference between groups. […] Bar, 100 μm.
6 to 8-week-old male nude mice were obtained from the MD Anderson breeding facility and used in accordance with the Animal Care and Use Guidelines of MD Anderson Cancer Center. In this study, 5 × 10^5 U87 (PTEN mutant) cells in DMEM/F12 serum-free media (5 μL) and GSC11 (PIK3CA mutant and PTEN mutant) were implanted intracranially into each mouse using a guide-screw system, as described previously. Four days after injection of the tumor cells, mice were randomized into 2 groups (10 animals per group). Mice in-group 1 was given 6 mg/kg DS7423 via oral gavage, and mice in-group 2 were given the vehicle (0.5% methyl cellulose) used for administration of DS (control). […] Mice were monitored daily and euthanized when they became moribund. […]

[4] = target: mixed lineage kinase 1 (MLK1) (Homo sapiens, UniProt P80192); assay: kinase panel, direct measurement of substrate phosphorylation, MLK1; type: biochemical; conditions: panel of 227 kinases; test concentration not given
Sequence of mixed lineage kinase 1 (MLK1) (P80192 whole entry): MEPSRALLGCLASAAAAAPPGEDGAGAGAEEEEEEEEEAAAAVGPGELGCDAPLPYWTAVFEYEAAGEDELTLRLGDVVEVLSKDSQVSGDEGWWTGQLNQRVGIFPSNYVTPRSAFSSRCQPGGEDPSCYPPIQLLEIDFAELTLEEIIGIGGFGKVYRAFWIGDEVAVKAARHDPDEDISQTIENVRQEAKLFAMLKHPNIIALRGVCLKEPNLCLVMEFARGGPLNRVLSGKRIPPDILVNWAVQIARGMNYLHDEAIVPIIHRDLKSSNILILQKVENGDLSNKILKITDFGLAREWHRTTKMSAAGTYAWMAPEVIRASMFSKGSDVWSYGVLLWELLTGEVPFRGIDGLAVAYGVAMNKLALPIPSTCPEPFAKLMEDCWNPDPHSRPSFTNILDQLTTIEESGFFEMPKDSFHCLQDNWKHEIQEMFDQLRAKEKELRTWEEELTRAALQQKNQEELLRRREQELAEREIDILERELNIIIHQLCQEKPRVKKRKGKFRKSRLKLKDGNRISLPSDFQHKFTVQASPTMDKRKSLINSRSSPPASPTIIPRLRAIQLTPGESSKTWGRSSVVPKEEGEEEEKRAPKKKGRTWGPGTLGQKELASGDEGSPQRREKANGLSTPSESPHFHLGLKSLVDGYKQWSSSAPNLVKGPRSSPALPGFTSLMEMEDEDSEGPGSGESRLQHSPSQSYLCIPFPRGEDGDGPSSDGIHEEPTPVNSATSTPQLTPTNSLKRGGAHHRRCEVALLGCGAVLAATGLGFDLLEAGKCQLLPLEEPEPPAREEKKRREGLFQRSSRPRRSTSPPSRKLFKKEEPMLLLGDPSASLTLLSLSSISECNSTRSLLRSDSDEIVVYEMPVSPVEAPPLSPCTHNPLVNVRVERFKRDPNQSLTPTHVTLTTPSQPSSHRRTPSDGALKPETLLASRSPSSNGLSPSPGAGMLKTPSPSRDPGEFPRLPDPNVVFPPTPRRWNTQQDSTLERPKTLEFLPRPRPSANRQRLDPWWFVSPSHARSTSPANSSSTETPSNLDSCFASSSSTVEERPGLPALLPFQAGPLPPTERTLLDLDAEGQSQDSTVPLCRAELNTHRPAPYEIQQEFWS
Protocol: as §1

CC(=O)N1CCN(c2nc3c(N4CCOCC4)nc(-c4cnc(N)nc4)nc3n2CC(F)(F)F)C[C@H]1C [DS, 1-{(2R)-4-[2-(2-Aminopyrimidin-5-yl)-6-(morpholin-4-yl)-9-(2,2,2-trifluoroethyl)-9H-purin-8-yl]-2-methylpiperazin-1-yl}ethan-1-one]
cells with induced autophagy (GFP-LC3 puncta) (U87 GFP-LC3 cells): 30% | pAkt and pS6 staining in U87 tumors [1]: marked reduction | inhibition of a representative panel of 227 kinases (panel of 227 kinases): poorly inhibited | inhibition of NEK2 [2]: greater than 50% | viability at 0.2 µM [3]: 63% | IC50 (p110γ): 249 nM | IC50 (p110δ): 262 nM | IC50 (p110α): 17 nM | median survival time (U87 glioma cells; U87 tumor-bearing mice, 6 mg/kg oral, control 30 days, P=0.025): 46 days | toxic effects in mice with intracranial xenograft tumors (U87 glioma cells; treated mice): without causing any obvious toxic effects | inhibition of MLK1 [4]: greater than 50%
